{
  "source": "patent US9119881B2",
  "about": "“Method of synergistically enhancing the therapeutic efficacy and safety of medication through a combination therapy” (priority 2010, dated 2015)",
  "key": {"[1]": {"test_system": "human aorta endothelial cells (HAECs)", "assay": "Intracellular cAMP assessment in HAECs", "type": "cell-based", "conditions": "5 min stimulation, beginning at 0.1 uM ABA", "experimental": "These cells were serum-starved using HBSS buffer for 30 min and then stimulated with various concentrations of abscisic acid (ABA) or Forskolin (forsk, 1 uM) for 5 minutes. After removing supernatant, cells were lysed with 0.1 M HCL to measure nonacetylated cAMP. Results (pmol/ml) from four independent experiments are depicted. Data are represented as mean±standard error.\nConfluent human aorta endothelial cells (HAECs) were serum-starved using HBSS buffer for 30 min, then stimulated with various concentration of ABA and Forskolin (1 uM) for 5 min, after removing supernatant, cells were lysed with 0.1 M HCL to measure non-acetylated cAMP using a commercially available kit (Cayman chemical) following the manufacturer's instructions. Results (pmol/mL) were obtained from four independent experiments. For nitric oxide (NO), confluent HAECs were serum-starved for 30 min by using HBSS buffer, then treated with ABA for 15 min. Supernatant was used to measure NO using an fluorescent kit."}, "[2]": {"test_system": "retinoic acid receptor (RAR)", "assay": "RAR luciferase reporter in transfected 3T3-L1 preadipocytes", "type": "cell-based", "conditions": "ABA 10 μM with retinoic acid 10 μM", "experimental": "A pCMX.L-RXR or pCMX.RAR expression plasmid and a luciferase reporter plasmid were purified using Qiagen's Maxi kit (Valencia, Calif.). 3T3-L1 preadipocytes (American Type Culture Collection, Manassas, Va.) were grown in DMEM high glucose medium (Invitrogen, Carlsbad, Calif.) containing 10% fetal bovine serum (FBS). The cells cultured in 25 cm^2 flasks were co-transfected with 0.6 ug plasmid DNA and 1 ng of pRL reporter control plasmid per well using F-2 transfection reagents (Targeting Systems, Santee, Calif.) according to the manufacturer's protocol. After 24 hours, transfected cells were split trypsin and seeded into 96-well white plates at a concentration of 20,000 cells/wells. The transfected cells were then treated with 9-cis retinoic acid (0, 10 μM; Sigma), or retinoic acid (RA, 10 μM; Sigma), with ABA (10 μM; Sigma) Transfected cells were harvested in reporter lysis reagent. Luciferase activity, normalized to pRL activity in the cell extracts was determined by using the dual luciferase reporter assay system (Promega, Madison, Wis.) in a Modulus 96-well plate reader (Turner Biosystems, Sunnyvale, Calif.). Relative luciferase activity (RLA) was calculated as a ratio of the chemiluminescence 10 seconds after the Luciferase Assay Reagent II (Promega) was added over the chemiluminescence 10 seconds after the Stop&Glo Reagent (Promega)."}, "[3]": {"assay": "Intraperitoneal glucose tolerance test and fasting insulin in db/db mice", "type": "in vivo", "experimental": "Obese db/db mice were fed high-fat diets containing […] mg/kg diet rosiglitazone maleate (control, Ros^lo, and Ros^hi, respectively) with and without racemic ABA (100 mg/kg diet). On day 42 mice underwent an intraperitoneal glucose tolerance test (IPGTT) (A). Areas under the curve (B) were calculated for each treatment. On day 55 fasting insulin levels were measured for mice on each diet (C). Data are represented as mean±standard error.\n(§1) Mice (n=40) were fed one of six experimental diets: a control high-fat diet (control), a high-fat diet containing low dose rosiglitazone maleate (Ros^lo, 10 mg/kg diet), or a high-fat diet containing a high dose of rosiglitazone maleate (Ros^hi, 70 mg/kg diet), each with or without all racemic ABA (100 mg/kg, Sigma Aldrich, St. Louis, Mo.) for 60 days. Mice were weighed and fasting (12 h) blood glucose levels were taken weekly. Blood glucose levels were assessed with an ACCU-CHEK® Glucometer (Roche, Indianapolis, Ind.). An intraperitoneal glucose tolerance test (IPGTT, 1 g glucose/kg body weight) was conducted on fasted mice (12 h) for 0, 30, 90, and 180 minute time points and insulin levels were measured on day 54. On day 60 mice were sacrificed by CO2 narcosis with secondary thoracotomy. Abdominal WAT, inguinal subcutaneous WAT, and liver were then excised and weighed. Abdominal and subcutaneous WAT were then digested and fractionated."}, "[4]": {"test_system": "F4/80+CD11b+ macrophages", "assay": "Macrophage infiltration into white adipose tissue of db/db mice, flow cytometry", "type": "in vivo", "conditions": "day 60", "experimental": "Obese db/db mice were fed high-fat diets containing 0, 15, or 70 mg/kg diet rosiglitazone maleate (control, Ros^lo, and Ros^hi, respectively) with and without racemic ABA (100 mg/kg diet). On day 60 the percent of F4/80+CD11b+ in the stromal vascular fractions of abdominal white adipose tissue (Ab. WAT) (A) and subcutaneous WAT (B) were assessed by flow cytometry. The percent of CD11b+CCR2+ monocytes (C) and CD4+CD25+FoxP3+ Tregs (D) in blood were assessed in whole blood. The expressions of the M1 marker CCL17 (E) and peroxisome proliferator activated receptor γ (PPAR γ) (F) in Ab. WAT were calculated as a ratio to the housekeeping gene f3-actin. Data are represented as mean±standard error.\nas §1, with “Mice were weighed and fasting (12 h) blood glucose levels were taken weekly.” left out, “On day 60 mice were sacrificed by CO2 narcosis with secondary thoracotomy. Abdominal WAT, inguinal subcutaneous WAT, and liver were then excised and weighed. Abdominal and subcutaneous WAT were then digested and fractionated.” left out"}},
  "data": [
    {"smiles": "CC1=CC(=O)CC(C)(C)C1(O)/C=C/C(C)=C\\C(=O)O", "note": "(racemic) [ABA, abscisic acid]", "values": [
      {"measurement": "intracellular cAMP concentration", "setting": "[1]", "value": "significantly increased"},
      {"measurement": "activity of RAR ligands", "setting": "[2]", "value": "synergistically enhances"},
      {"measurement": "glucose tolerance (IPGTT)", "setting": "[3]; day 42, relative to the control diet", "value": "significantly improved"},
      {"measurement": "fasting insulin levels", "setting": "[3]; dietary ABA 100 mg/kg diet, P=0.04", "value": "significantly reduced"},
      {"measurement": "ATM infiltration in SCAT", "setting": "[4]; db/db mice fed the control and Ros^lo diets", "value": "significantly reduced"},
      {"measurement": "macrophage (ATM) infiltration into Ab. WAT", "setting": "[4]; db/db mice, ABA 100 mg/kg diet, Ros^lo, or both, relative to the control diet", "value": "little effect"}
    ]}
  ]
}
